Measurements as given in patent US6555533B2, “Use of certain substituted caprolactams in treating tumors” (Novartis AG, priority 1998, dated 2003).
Like-named read-outs stand apart in the source and are kept apart here. Marks after values point to notes of the source that are not given here.

Columns and labels:
A549 tumor xenografts = system: A549 tumor xenografts
Excerpt: Utilizing this model, one can measure the ability of test compounds to inhibit the growth of human tumor xenografts growing subcutaneously (s.c.) in athymic nude mice. The histologic tumor types employed were MDA-MB-435 breast, A549 non-small cell lung, HCT-116 colon and PC-3 prostate carcinomas.
A549 non-small cell lung carcinoma xenograft model: Briefly, 10 million cells were implanted s.c. into the right flank of athymic (nu/nu) mice, and were allowed to grow until a mass of approximately 120 mm^3 was established. The test compounds are administered three times per week intravenously (i.v.) for three weeks in 5% dextrose, 10%DMSO in water. The test compounds are administered in dose-response fashion in order to evaluate and document the full potential range of activity (efficacy and toxicity) for a given compound. Positive controls are carried out with mitomycin C administered 3 times per week intraperitioneally (i.p.).
Toxicity was monitored by recording average group body weights twice weekly, and by daily observation of general health. Efficacy was monitored by taking measurements of tumor length, width, and depth weekly using digital calipers coupled to automated data collectors. Mean tumor volume (MTV) at initiation of therapy was subtracted from final MTV in order to express the actual tumor growth during treatment (ΔMTV). Anti-tumor activity was expressed as %T/C (ΔMTV of treated group÷ΔMTV of control group×100). Regressions were calculated using the formula: (T/T0−1)×100%, where T is the tumor volume for the treatment group at the end of the experiment, and T0 is the tumor volume at the beginning of the experiment. Statistical significance was evaluated using a one-tailed Student's t-test (p<0.05).

[1] = system: MDA-MB-435 tumor xenografts; assay: MDA-MB-435 breast carcinoma xenograft model; format: in vivo, athymic (nu/nu) mice
Experimental: Positive controls are carried out with doxorubicin administered 3 times per week i.v.
The following results were obtained for compounds of Ex.1-Ex.12 tested against MDA-MB-435 tumor xenografts 3×/week for 3 weeks: […]

HCT-116 tumor xenografts = assay: HCT-116 colon carcinoma xenograft model; format: in vivo, athymic (nu/nu) mice; conditions: 75 mg/kg i.v. 1 time per week (positive control)
Experimental: Positive controls are carried out with 5-fluorouracil administered 1 time per week i.v.

[2] = system: MDA-MB-435 breast carcinoma; assay: Anchorage Dependent Growth Monolayer Assay (ADGMA), MDA-MB-435; format: cell-based, human; conditions: 3-day exposure, MTS readout, read-out: IC50 (average±S.D.) MDA-MB-435
Experimental: As indicated above, all of the compounds of formula I, and their corresponding pharmaceutically acceptable acid addition salts, are anti-tumor agents and are, therefore, useful in inhibiting the growth of various lymphomas, sarcomas, carcinomas, myelomas, and leukemia cell lines.
The ADGMA compares the number of viable cells following a 3-day exposure to a test compound relative to a number of cells present at the time the test compound was added. […] The absorbance at 490 nm (A490) of the formazan derivative is proportional to the number of viable cells. The IC50 for a test compound is the concentration of compound required to reduce the final cell number to 50% of the final control cell number. If cell proliferation is inhibited, the assay further defines compounds as cytostatic (cell number after 3-day compound incubation >cell number at time of compound addition) or cytotoxic (cell number after 3-day compound incubation <cell number at time of compound addition).
The MDA-MB-435 breast carcinoma line was obtained from the American Type Culture Collection (ATCC) and used between passages 4-20 following thawing. MDA-MB-435 breast carcinoma was maintained and plated in DME/F12 medium containing 10% fetal bovine serum, 15 mM HEPES (pH=7.4), 100 units/mL penicillin, and 100 μg/mL streptomycin.
Cell lines are trypsinized and counted using a Coulter counter to determine plating densities. Cells are then plated in their respective maintenance media (100 μL/well) in 96 well plates at the following densities: MDA-MB-435, 3,000 cells/well; A549 and HCT-116, 700 cells/well; are PC-3, 2500 cells/well. The number of cells plates as determined in preliminary experiments, results in cell densities of 75-90% of confluency by 4 days after plating. Initial cell densities, assayed one day after plating, are roughly 0.15-0.20 absorbance units greater than the media blank. Ninety-six well plates are seeded on day 0 and the test compounds are added on day 1. A control plate is created for each cell line that receives media only in row A and cells in row B. One day following plating, test compounds are added (in a final volume of 100 μL) to the test plates. Control plates receive 10 μL MTS mixture (prepared fresh on day of addition to cell plates at a ratio of 10 μL of a 0.92 mg/mL solution of PMS to a 190 μL of a 2 mg/mL solution of MTS) and 100 μL media. A490 of control plates is read 4 h after MTS addition to determine initial cell density values for each cell line. Three days after addition of test compound, 10 μL/well of MTS mixture is added to the test plates and A490 is read 4 h later. A490 values for wells containing cells are corrected for media absorbance, then normalized to initial density readings to determine percent net growth. IC50 values are determined from graphs of percent net growth as a function of compound concentration. Percent net growth is calculated as (Cell+Drug A490−Initial A490/Cell+Drug Vehicle A490−Initial A490).

PC-3 tumor xenografts = assay: PC-3 prostate carcinoma xenograft model; format: in vivo, athymic (nu/nu) mice; conditions: 15 mg/kg i.v. daily for the first five days (positive control)
[3] = 2 mg/kg i.p. 3 times per week (positive control)
[4] = 10 μmol/kg i.v. 3×/week for 3 weeks
[5] = 33 μmol/kg i.v. 3×/week for 3 weeks

Structure (SMILES) | Dead/Total [1, 4] | Dead/Total [1, 5] | % T/C [1, 4] | % T/C [1, 5] | also measured
CO[C@@]12[C@H](COC(N)=O)C3=C(C(=O)C(C)=C(N)C3=O)N1C[C@@H]1N[C@@H]12 [Mitomycin C, reference compound] | – | – | – | – | % T/C (A549 tumor xenografts; [3]): 20* %; Δ MTV (A549 tumor xenografts; [3]): 15 mm^3; Dead/Total (A549 tumor xenografts; mouse, in vivo): 0/8
CO[C@@H](C(=O)N[C@H]1CC[C@@H](OC(=O)/C=C/c2ccccc2)CNC1=O)[C@H](O)[C@@H](O)[C@H](O)/C=C/C(C)(C)C [Ex. 11, (2R, 3R, 4S, 5R, 6E)-3,4,5-Trihydroxy-2-methoxy-8,8-dimethyl-N-[(3S, 6R)-hexahydro-2-oxo-6-(1-oxo-3-phenyl-2-propenoxy)-2H-azepin-3-yl]non-6-enamide] | 0/8 | 0/8 | – | – | Δ MTV [1, 4]: 135 mm^3; Δ MTV [1, 5]: 76 mm^3
O=c1[nH]cc(F)c(=O)[nH]1 [5-fluorouracil, reference compound] | – | – | – | – | % T/C (HCT-116 tumor xenografts): 16* %; Dead/Total (HCT-116 tumor xenografts): 0/8; Δ MTV (HCT-116 tumor xenografts): 65 mm^3
COc1ccc(CC(=O)O[C@@H]2CC[C@H](NC(=O)[C@H](OC)[C@H](O)[C@@H](O)[C@H](O)/C=C/C(C)(C)C)C(=O)NC2)cc1 [Ex. 9, (2R, 3R, 4S, 5R, 6E)-3,4,5-Trihydroxy-2-methoxy-8,8-dimethyl-N-[(3S, 6R)-hexahydro-2-oxo-6-(1-oxo-2-[4-methoxyphenyl]ethoxy)-2H-azepin-3-yl]non-6-enamide] | 0/8 | 0/8 | 76% | 48* % | –
CO[C@@H](C(=O)N[C@H]1CC[C@@H](OC(=O)Cc2ccc(Cl)c(Cl)c2)CNC1=O)[C@H](O)[C@@H](O)[C@H](O)/C=C/C(C)(C)C [Ex. 8, (2R, 3R, 4S, 5R, 6E)-3,4,5-Trihydroxy-2-methoxy-8,8-dimethyl-N-[(3S, 6R)-hexahydro-2-oxo-6-(1-oxo-2-[3,4-dichlorophenyl]ethoxy)-2H-azepin-3-yl]non-6-enamide] | 0/8 | 0/8 | 62% | 67% | –
CCCCCCCCCCOc1ccc(C(=O)O[C@@H]2CC[C@H](NC(=O)[C@H](OC)[C@H](O)[C@@H](O)[C@H](O)/C=C/C(C)(C)C)C(=O)NC2)cc1 [Ex. 10, (2R, 3R, 4S, 5R, 6E)-3,4,5-Trihydroxy-2-methoxy-8,8-dimethyl-N-[(3S, 6R)-hexahydro-2-oxo-6-([4-n-decyloxyphenyl]carbonyl)oxy-2H-azepin-3-yl]non-6-enamide] | 0/8 | 0/8 | 64* % | 2* % | IC50 ([2]; Homo sapiens, MDA-MB-435, 72 h): 6 ± 4 nM; Δ MTV [1, 5]: 4 mm^3
CO[C@@H](C(=O)N[C@H]1CC[C@@H](OC(=O)Cc2c[nH]c3ccccc23)CNC1=O)[C@H](O)[C@@H](O)[C@H](O)/C=C/C(C)(C)C [Ex. 14, (2R, 3R, 4S, 5R, 6E)-3,4,5-Trihydroxy-2-methoxy-8,8-dimethyl-N-[(3S, 6R)-hexahydro-2-oxo-6-(1-oxo-3-[3-indolyl]ethoxy)-2H-azepin-3-yl]non-6-enamide] | – | – | – | – | IC50 [2]: 1240 ± 196 nM
CO[C@@H](C(=O)N[C@H]1CC[C@@H](OC(=O)C2CCCCCC2)CNC1=O)[C@H](O)[C@@H](O)[C@H](O)/C=C/C(C)(C)C [Ex. 3, (2R, 3R, 4S, 5R, 6E)-3,4,5-Trihydroxy-2-methoxy-8,8-dimethyl-N-[(3S, 6R)-hexahydro-2-oxo-6(cylohpetylcarbonyl)oxy-2H-azepin-3-yl]non-6-enamide] | 0/8 | 0/8 | 39* % | 28* % | IC50 [2]: 32 ± 14 nM
CO[C@@H](C(=O)N[C@H]1CC[C@@H](OC(=O)CC2CCCCC2)CNC1=O)[C@H](O)[C@@H](O)[C@H](O)/C=C/C(C)(C)C [Ex. 6, (2R, 3R, 4S, 5R, 6E)-3,4,5-Trihydroxy-2-methoxy-8,8-dimethyl-N-[(3S, 6R)-hexahydro-2-oxo-6-(cyclohexylmethylcarbonyl)oxy-2H-azepin-3-yl]non-6-enamide] | 0/8 | 0/8 | 47* % | 34* % | –
CC(=O)O[C@H]1C(=O)[C@@]2(C)[C@H]([C@H](OC(=O)c3ccccc3)[C@]3(O)C[C@H](OC(=O)[C@H](O)[C@@H](NC(=O)c4ccccc4)c4ccccc4)C(C)=C1C3(C)C)[C@]1(OC(C)=O)CO[C@@H]1C[C@@H]2O [Paclitaxel, reference compound] | – | – | – | – | % regression (PC-3 tumor xenografts): 100 regression* %; Dead/Total (PC-3 tumor xenografts): 3/8; Δ MTV (PC-3 tumor xenografts): −103 mm^3
CCCCCCCCCCc1ccc(C(=O)O[C@@H]2CC[C@H](NC(=O)[C@H](OC)[C@H](O)[C@@H](O)[C@H](O)/C=C/C(C)(C)C)C(=O)NC2)cc1 [Ex. 12, (2R, 3R, 4S, 5R, 6E)-3,4,5-Trihydroxy-2-methoxy-8,8-dimethyl-N-[(3S, 6R)-hexahydro-2-oxo-6-([4-n-decylphenyl]carbonyl)oxy-2H-azepin-3-yl]non-6-enamide] | 0/8 | 0/8 | 52% | 7* % | IC50 ([2]; Homo sapiens, MDA-MB-435, 72 h): 27 ± 37 nM
CO[C@@H](C(=O)N[C@H]1CC[C@@H](OC(=O)Cc2ccccc2)CNC1=O)[C@H](O)[C@@H](O)[C@H](O)/C=C/C(C)(C)C [Ex. 7, (2R, 3R, 4S, 5R, 6E)-3,4,5-Trihydroxy-2-methoxy-8,8-dimethyl-N-[(3S, 6R)-hexahydro-2-oxo-6-(1-oxo-2-phenylethoxy)-2H-azepin-3-yl]non-6-enamide.] | 0/8 | 0/8 | 72% | 43* % | IC50 [2]: 262 ± 70 nM
